# Assay results from patent US20260053171A1, “METHANOGEN INHIBITORS” (AGRIZERONZ LIMITED PARTNERSHIP, priority 2022, published 2026).
# Test system: methane production in rumen fluid
# Assay: Rumen in vitro (RIV) assay, methane production from rumen fluid incubations
# Assay type: cell-based, cattle
# Settings: Bos taurus, read-out: RIV % methane reduction +/− SD
# Protocol: The compounds of the present invention were initially screened for activity using an in vitro fully automated incubation system for the measurement of total gas production and gas composition (methane and hydrogen). The system used is described in detail in the paper by Muetzel et al. (2014; Animal Feed Science and Technology 196, 1-11). The system in this specification is referred to as the rumen in vitro system or RIV. The RIV system provides a relatively simple tool for determining the rate and production of methane and also whether the rate and production of methane is inhibited or reduced by a particular compound or feed. Rumen in vitro assays use rumen fluid from donor animals (typically either sheep or cattle) which is typically combined with a buffer and then incubated in sealed fermentation vessels at 39° C. for either 24 or 48 h. These assays systems have been well-characterised and used by the scientific community over the last two decades (Rymer et al. 2005). The system that has been used here to characterise the effects of inhibitors on methane production and gas production, and the formation of H2, was described by Muetzel et al. (2014). Rumen in vitro assay systems reflect what can occur in the rumen in vivo, but only short-term, due to their short incubation times (typically not exceeding 48 h) which is limited by its buffering capacity and the fact that it is a closed system. Stock solutions of inhibitors were re-suspended in dimethylformamide (DMF) at concentrations 1000-fold higher than the highest used for the assays. Any further dilutions were also prepared using DMF. The total amount of inhibitor solution added to the rumen fluid-buffer mixture (60 mL) was 60 μl. Incubations used 60 ml of medium containing 12 ml of filtered rumen fluid and 48 ml of buffer in serum bottles for 24-48 h, essentially as described by Muetzel et al. (2014). Two fistulated cattle were used as donor animals for rumen fluid and treatments were incubated in duplicate bottles. Sets of duplicate incubation vials that contained ryegrass (with rumen fluid-buffer mixture), and ryegrass with 30 μM bromoethanesulfonate (BES) were also incubated as negative and positive controls, respectively. One experiment consists of 2 replicates of an inhibitor at any one concentration run at the same time, and a run can contain up to 32 bottle, including positive (30 µM BES) and negative (no inhibitor added) controls. Compound 1, for example, was tested using the 60 mL rumen in vitro assay system at 50 μM, 10 μM, and 2 μM final concentrations and compared to a positive control with 30 µM BES.
SMILES,inhibition at 2 µM [%],inhibition at 10 µM [%],inhibition at 50 µM [%]
"O=C(CCC(=O)N1N=C(c2ccc(-c3ccccc3)cc2)CC1c1ccc2nccnc2c1)NS(=O)(=O)c1ccccc1 (stereo not shown) [Compound 123, 4-(3-([1,1′-Biphenyl]-4-yl)-5-(quinoxalin-6-yl)-4,5-dihydro-1H-pyrazol-1-yl)-4-oxo-N-(phenylsulfonyl) butanamide]",7.4 ± 0.7,77 ± 4.2,
"CCOc1ccc(-c2ccc(C3=NN(C(=O)CCC(=O)O)C(c4ccc5nccnc5c4)C3)cc2)cc1 (stereo not shown) [Compound 79, 4-(3-(4′-Ethoxy-[1,1′-biphenyl]-4-yl)-5-(quinoxalin-6-yl)-4,5-dihydro-1H-pyrazol-1-yl)-4-oxobutanoic acid]",25.2 ± 2.5,81.5 ± 0.1,
"O=C(O)CCC(=O)N1N=C(c2ccc(Cl)cc2)CC1c1ccc(F)c(F)c1 (stereo not shown) [Compound 112, 4-(3-(4-Chlorophenyl)-5-(3,4-difluorophenyl)-4,5-dihydro-1H-pyrazol-1-yl)-4-oxobutanoic acid]",,,21.7 ± 0.9
"COc1cccc(-c2cccc(C3=NN(C(=O)CCC(=O)O)C(c4ccc5nccnc5c4)C3)c2)c1 (stereo not shown) [Compound 97, 4-(3-(3′-Methoxy-[1,1′-biphenyl]-3-yl)-5-(quinoxalin-6-yl)-4,5-dihydro-1H-pyrazol-1-yl)-4-oxobutanoic acid]",,5.4 ± 0.2,76 ± 1.4
"O=C(O)CCC(=O)N1N=C(c2ccc(Cl)cc2Cl)CC1c1ccc2nccnc2c1 (stereo not shown) [Compound 10, 4-(3-(2,4-Dichlorophenyl)-5-(quinoxalin-6-yl)-4,5-dihydro-1H-pyrazol-1-yl)-4-oxobutanoic acid]",,,64 ± 0.6
"CC(C)Oc1ccc(-c2ccc(C3=NN(C(=O)CCC(=O)O)C(c4ccc5nccnc5c4)C3)cc2)cc1F (stereo not shown) [Compound 100, 4-(3-(3′-Fluoro-4′-isopropoxy-[1,1′-biphenyl]-4-yl)-5-(quinoxalin-6-yl)-4,5-dihydro-1H-pyrazol-1-yl)-4-oxobutanoic acid]",25 ± 7.8,89.2 ± 3,
"COc1cccc(-c2ccc(C3=NN(C(=O)CCC(=O)O)C(c4ccc5nccnc5c4)C3)cc2)c1 (stereo not shown) [Compound 90, 4-(3-(3′-Methoxy-[1,1′-biphenyl]-4-yl)-5-(quinoxalin-6-yl)-4,5-dihydro-1H-pyrazol-1-yl)-4-oxobutanoic acid]",,6.9 ± 2.2,84.2
"COc1cc(C2CC(c3ccc(-c4ccccc4)cc3)=NN2C(=O)CCC(=O)O)ccc1O (stereo not shown) [Compound 46, 4-(3-([1,1′-Biphenyl]-4-yl)-5-(4-hydroxy-3-methoxyphenyl)-4,5-dihydro-1H-pyrazol-1-yl)-4-oxobutanoic acid]",,,48.6 ± 1.7
"CC(C)Cc1ccc(-c2ccc(C3=NN(C(=O)CCC(=O)O)C(c4ccc5nccnc5c4)C3)cc2)cc1 (stereo not shown) [Compound 86, 4-(3-(4′-Isobutyl-[1,1′-biphenyl]-4-yl)-5-(quinoxalin-6-yl)-4,5-dihydro-1H-pyrazol-1-yl)-4-oxobutanoic acid]",,29 ± 8.6,
"O=C(O)CCC(=O)N1N=C(c2ccc(-c3ccc4c(c3)OCO4)cc2)CC1c1ccc2nccnc2c1 (stereo not shown) [Compound 103, 4-(3-(4-(Benzo[d][1,3]dioxol-5-yl)phenyl)-5-(quinoxalin-6-yl)-4,5-dihydro-1H-pyrazol-1-yl)-4-oxobutanoic acid]",,24.8 ± 6.2,
"Cc1ccc(S(=O)(=O)NC(=O)CCC(=O)N2N=C(c3ccc(Cl)cc3)CC2c2ccc3nccnc3c2)cc1 (stereo not shown) [Compound 125, 4-(3-(4-Chlorophenyl)-5-(quinoxalin-6-yl)-4,5-dihydro-1H-pyrazol-1-yl)-4-oxo-N-tosylbutanamide]",,21.8 ± 5.7,
"O=C(O)CCC(=O)N1N=C(c2cccc(-c3ccc(OC(F)(F)F)cc3)c2)CC1c1ccc2nccnc2c1 (stereo not shown) [Compound 14, 4-Oxo-4-(5-(quinoxalin-6-yl)-3-(4′-(trifluoromethoxy)-[1,1′-biphenyl]-3-yl)-4,5-dihydro-1H-pyrazol-1-yl)butanoic acid]",< 5,72.4 ± 0.8,95.4
"O=C(O)/C=C\C(=O)N1N=C(c2ccc(Cl)cc2)CC1c1ccc2nccnc2c1 (stereo not shown) [Compound 52, (Z)-4-(3-(4-Chlorophenyl)-5-(quinoxalin-6-yl)-4,5-dihydro-1H-pyrazol-1-yl)-4-oxobut-2-enoic acid]",,,34.1 ± 1.3
"CC(C)(C)S(=O)(=O)NC(=O)CCC(=O)N1N=C(c2ccc(Cl)cc2)CC1c1ccc2nccnc2c1 (stereo not shown) [Compound 121, N-(tert-Butylsulfonyl)-4-(3-(4-chlorophenyl)-5-(quinoxalin-6-yl)-4,5-dihydro-1H-pyrazol-1-yl)-4-oxobutanamide]",,9.8 ± 2.2,
"O=C(O)CCC(=O)N1N=C(c2ccc(-c3ccc(N4CCCCC4)cc3)cc2)CC1c1ccc2nccnc2c1 (stereo not shown) [Compound 96, 4-Oxo-4-(3-(4′-(piperidin-1-yl)-[1,1′-biphenyl]-4-yl)-5-(quinoxalin-6-yl)-4,5-dihydro-1H-pyrazol-1-yl)butanoic acid]",,8.2 ± 2.5,73.3 ± 12.1
"CCOc1cc(C2CC(c3ccc(Cl)cc3)=NN2C(=O)CCC(=O)O)ccc1O (stereo not shown) [Compound 47, 4-(3-(4-Chlorophenyl)-5-(3-ethoxy-4-hydroxyphenyl)-4,5-dihydro-1H-pyrazol-1-yl)-4-oxobutanoic acid]",,,68.3 ± 3.9
"O=C(O)/C=C/C(=O)N1N=C(c2ccc(Cl)cc2)CC1c1ccc2nccnc2c1 (stereo not shown) [Compound 51, (E)-4-(3-(4-Chlorophenyl)-5-(quinoxalin-6-yl)-4,5-dihydro-1H-pyrazol-1-yl)-4-oxobut-2-enoic acid]",,,57.1 ± 7.5
"O=C(O)CCC(=O)N1N=C(c2ccc(-c3cccc(OC(F)(F)F)c3)cc2)CC1c1ccc2nccnc2c1 (stereo not shown) [Compound 21, 4-Oxo-4-(5-(quinoxalin-6-yl)-3-(3′-(trifluoromethoxy)-[1,1′-biphenyl]-4-yl)-4,5-dihydro-1H-pyrazol-1-yl)butanoic acid]",15.8 ± 1.1,91.9 ± 1.5,97.9
"O=C(O)CCC(=O)N1N=C(c2ccc(OC(F)(F)F)cc2)CC1c1ccc2nccnc2c1 (stereo not shown) [Compound 8, 4-Oxo-4-(5-(quinoxalin-6-yl)-3-(4-(trifluoromethoxy)phenyl)-4,5-dihydro-1H-pyrazol-1-yl)butanoic acid]",,22.6 ± 2.8,75.2 ± 1.6
"COCCOc1ccc(-c2ccc(C3=NN(C(=O)CCC(=O)O)C(c4ccc5nccnc5c4)C3)cc2)cc1 (stereo not shown) [Compound 91, 4-(3-(4′-(2-Methoxyethoxy)-[1,1′-biphenyl]-4-yl)-5-(quinoxalin-6-yl)-4,5-dihydro-1H-pyrazol-1-yl)-4-oxobutanoic acid]",< 5,73.2 ± 2.8,
"O=C(O)CCC(=O)N1N=C(c2ccc(-c3ccc(F)cc3)cc2)CC1c1ccc2nccnc2c1 (stereo not shown) [Compound 16, 4-(3-(4′-Fluoro-[1,1′-biphenyl]-4-yl)-5-(quinoxalin-6-yl)-4,5-dihydro-1H-pyrazol-1-yl)-4-oxobutanoic acid]",< 5,77.5 ± 2.1,96.6 ± 0.2
"O=C(O)CCC(=O)N1N=C(c2ccc(-c3ccc(Cl)cc3Cl)cc2)CC1c1ccc2nccnc2c1 (stereo not shown) [Compound 26, 4-(3-(2′,4′-Dichloro-[1,1′-biphenyl]-4-yl)-5-(quinoxalin-6-yl)-4,5-dihydro-1H-pyrazol-1-yl)-4-oxobutanoic acid]",,65.8 ± 3.7,96 ± 1.1
"O=C(O)CC(=O)N1N=C(c2ccc(Cl)cc2)CC1c1ccc2nccnc2c1 (stereo not shown) [Compound 49, 3-(3-(4-Chlorophenyl)-5-(quinoxalin-6-yl)-4,5-dihydro-1H-pyrazol-1-yl)-3-oxopropanoic acid]",,,8.1 ± 7.7
"COc1ccc(-c2cccc(C3=NN(C(=O)CCC(=O)O)C(c4ccc5nccnc5c4)C3)c2)cc1 (stereo not shown) [Compound 99, 4-(3-(4′-Methoxy-[1,1′-biphenyl]-3-yl)-5-(quinoxalin-6-yl)-4,5-dihydro-1H-pyrazol-1-yl)-4-oxobutanoic acid]",,< 5,71.8
"CS(=O)(=O)NC(=O)CCC(=O)N1N=C(c2cccc(-c3ccccc3)c2)CC1c1ccc2nccnc2c1 (stereo not shown) [Compound 68, 4-(3-([1,1′-Biphenyl]-3-yl)-5-(quinoxalin-6-yl)-4,5-dihydro-1H-pyrazol-1-yl)-N-(methylsulfonyl)-4-oxobutanamide]",20.5 ± 1.4,85.4 ± 0.5,
"CC(C)Oc1ccc(-c2ccc(C3=NN(C(=O)CCC(=O)O)C(c4ccc5nccnc5c4)C3)cc2)cn1 (stereo not shown) [Compound 107, 4-(3-(4-(6-Isopropoxypyridin-3-yl)phenyl)-5-(quinoxalin-6-yl)-4,5-dihydro-1H-pyrazol-1-yl)-4-oxobutanoic acid]",,33.4 ± 2.1,
